{"source": "paper PMC11280027", "about": "“Conquering the beyond Rule of Five Space with an Optimized High-Throughput Caco-2 Assay to Close Gaps in Absorption Prediction” (Pharmaceutics, 2024)", "data": [{"system": "not listed separately", "test": "Bidirectional transport study with assay-ready Caco-2 cells, 7-day versus 21-day cultivation (Figure S2)", "details": "human, Caco-2, pH 7.4", "values": [{"molecule": "CN/C(=N/CCSCc1nc[nH]c1C)NC#N", "note": "[Cimetidine]", "efflux ratio at 60 min": "> 2"}, {"molecule": "COc1cc2nc(N3CCN(C(=O)c4ccco4)CC3)nc(N)c2cc1OC", "note": "[Prazosin]", "efflux ratio at 60 min": "> 2"}, {"molecule": "O=C(O)c1cc(/N=N/c2ccc(S(=O)(=O)Nc3ccccn3)cc2)ccc1O", "note": "[Sulfasalazine]", "efflux ratio at 60 min": "> 2"}]}, {"system": "Caco-2 cells", "test": "Bidirectional transport study with assay-ready Caco-2 cells, 7-day versus 21-day cultivation (Figure S2)", "details": "Caco-2 cells maintained 7 days on transwell plates; ER = Papp,BA/Papp,AB", "values": [{"molecule": "C[C@]12CC[C@@H]3c4ccc(OS(=O)(=O)O)cc4CC[C@H]3[C@@H]1CCC2=O", "note": "[Compound E3S, estrone-3-sulfate]", "efflux ratio (ER)": "> 2"}]}, {"system": "Caco-2 cells", "test": "Bidirectional transport study with assay-ready Caco-2 cells, 7-day versus 21-day cultivation (Figure S2)", "details": "Caco-2 cells maintained 21 days on transwell plates; ER = Papp,BA/Papp,AB", "values": [{"molecule": "C[C@]12CC[C@@H]3c4ccc(OS(=O)(=O)O)cc4CC[C@H]3[C@@H]1CCC2=O", "note": "[Compound E3S, estrone-3-sulfate]", "efflux ratio (ER)": "> 2"}, {"molecule": "CN/C(=N/CCSCc1nc[nH]c1C)NC#N", "note": "[Cimetidine]", "efflux ratio (ER)": "> 2"}, {"molecule": "COc1cc2nc(N3CCN(C(=O)c4ccco4)CC3)nc(N)c2cc1OC", "note": "[Prazosin]", "efflux ratio (ER)": "> 2"}, {"molecule": "O=C(O)c1cc(/N=N/c2ccc(S(=O)(=O)Nc3ccccn3)cc2)ccc1O", "note": "[Sulfasalazine]", "efflux ratio (ER)": "> 2"}]}, {"system": "not given", "test": "not given", "details": "human fraction absorbed; rounded to two significant figures; ref [17]; cited from earlier work", "values": [{"molecule": "CC(C)(C)NC(=O)N[C@H](C(=O)N1C[C@H]2[C@@H]([C@H]1C(=O)NC(CC1CCC1)C(=O)C(N)=O)C2(C)C)C(C)(C)C", "note": "(stereo partly shown) [Boceprevir]", "Observed Human fa": 0.92}, {"molecule": "CNCCC=C1c2ccccc2CCc2ccccc21", "note": "[Nortriptyline]", "Observed Human fa": 1.0}, {"molecule": "N=C(N)NC(=O)c1nc(Cl)c(N)nc1N", "note": "[Amiloride]", "Observed Human fa": 0.53}, {"molecule": "C[C@]12C[C@H](O)[C@H]3[C@@H](CCC4=CC(=O)CC[C@@]43C)[C@@H]1CC[C@@H]2C(=O)CO", "note": "[Corticosterone]", "Observed Human fa": 1.0}, {"molecule": "O=C(O)COCCN1CCN(C(c2ccccc2)c2ccc(Cl)cc2)CC1", "note": "(stereo not shown) [Cetirizine]", "Observed Human fa": 0.73}, {"molecule": "CC[C@H]1OC(=O)[C@H](C)[C@@H](O[C@H]2C[C@@](C)(OC)[C@@H](O)[C@H](C)O2)[C@H](C)[C@@H](O[C@@H]2O[C@H](C)C[C@H](N(C)C)[C@H]2O)[C@](C)(O)C[C@@H](C)/C(=N\\OCOCCOC)[C@H](C)[C@@H](O)[C@]1(C)O", "note": "[Roxithromycin]", "Observed Human fa": 0.86}, {"molecule": "COCCOC(=O)C1=C(C)NC(C)=C(C(=O)OC(C)C)C1c1cccc([N+](=O)[O-])c1", "note": "(stereo not shown) [Nimodipine]", "Observed Human fa": 1.0}, {"molecule": "Cc1nccn1CC1CCc2c(c3ccccc3n2C)C1=O", "note": "(stereo not shown) [Ondansetron]", "Observed Human fa": 1.0}, {"molecule": "O=C(O)Cc1ccccc1Nc1c(Cl)cccc1Cl", "note": "[Diclofenac]", "Observed Human fa": 0.97}, {"molecule": "CNC(=O)Oc1ccc2c(c1)[C@]1(C)CCN(C)[C@@H]1N2C", "note": "[Physostigmine]", "Observed Human fa": 0.050}, {"molecule": "CN(CCOc1ccc(CC2SC(=O)NC2=O)cc1)c1ccccn1", "note": "(stereo not shown) [Rosiglitazone]", "Observed Human fa": 1.0}, {"molecule": "CC(C)c1nc(N(C)S(C)(=O)=O)nc(-c2ccc(F)cc2)c1/C=C/[C@@H](O)C[C@@H](O)CC(=O)O", "note": "[Rosuvastatin]", "Observed Human fa": 0.35}, {"molecule": "COc1ccc2c(c1)C(=O)N(CCc1ccc(S(=O)(=O)NC(=O)NC3CCCCC3)cc1)C(=O)C2(C)C", "note": "[Gliquidone]", "Observed Human fa": 0.95}, {"molecule": "Cc1cccc(C)c1OCC(C)N", "note": "(stereo not shown) [Mexiletine]", "Observed Human fa": 0.99}, {"molecule": "CCN(CCO)CCCC(C)Nc1ccnc2cc(Cl)ccc12", "note": "(stereo not shown) [Hydroxychloroquine]", "Observed Human fa": 0.90}, {"molecule": "CN1CCC[C@H]1c1cccnc1", "note": "[Nicotine]", "Observed Human fa": 1.0}, {"molecule": "CCOC(=O)C1=C[C@@H](OC(CC)CC)[C@H](NC(C)=O)[C@@H](N)C1", "note": "[Oseltamivir]", "Observed Human fa": 0.75}, {"molecule": "CN(C)CCc1c[nH]c2ccc(Cn3cncn3)cc12", "note": "[Rizatriptan]", "Observed Human fa": 0.90}, {"molecule": "O=c1n(CCCN2CCN(c3cccc(Cl)c3)CC2)nc2ccccn12", "note": "[Trazodone]", "Observed Human fa": 0.98}, {"molecule": "CC(=O)N1CCN(c2ccc(OCC3COC(Cn4ccnc4)(c4ccc(Cl)cc4Cl)O3)cc2)CC1", "note": "(stereo not shown) [Ketoconazole]", "Observed Human fa": 0.76}, {"molecule": "CC(C)(C)NC(=O)[C@@H]1CN(Cc2cccnc2)CCN1C[C@@H](O)C[C@@H](Cc1ccccc1)C(=O)N[C@H]1c2ccccc2C[C@H]1O", "note": "[Indinavir]", "Observed Human fa": 0.63}, {"molecule": "NS(=O)(=O)c1cc(C(=O)O)c(NCc2ccco2)cc1Cl", "note": "[Furosemide]", "Observed Human fa": 0.61}, {"molecule": "OC(CCN1CCCCC1)(c1ccccc1)C1CCCCC1", "note": "(stereo not shown) [Trihexyphenidyl]", "Observed Human fa": 1.0}, {"molecule": "OCCN(CCO)c1nc(N2CCCCC2)c2nc(N(CCO)CCO)nc(N3CCCCC3)c2n1", "note": "[Dipyridamole]", "Observed Human fa": 0.56}, {"molecule": "Nc1ccc(/N=N/c2ccccc2)c(N)n1", "note": "[Phenazopyridine]", "Observed Human fa": 0.90}, {"molecule": "CNC(=C[N+](=O)[O-])NCCSCc1ccc(CN(C)C)o1", "note": "[Ranitidine]", "Observed Human fa": 0.56}, {"molecule": "Cc1cc(=O)n(-c2ccccc2)n1C", "note": "[Antipyrine]", "Observed Human fa": 0.98}, {"molecule": "O=C(NCCN1CCOCC1)c1ccc(Cl)cc1", "note": "[Moclobemide]", "Observed Human fa": 0.85}, {"molecule": "Nc1nnc(-c2cccc(Cl)c2Cl)c(N)n1", "note": "[Lamotrigine]", "Observed Human fa": 0.98}, {"molecule": "COc1ccccc1Oc1c(NS(=O)(=O)c2ccc(C(C)(C)C)cc2)nc(-c2ncccn2)nc1OCCO", "note": "[Bosentan]", "Observed Human fa": 0.70}, {"molecule": "O=C1Cc2cc(CCN3CCN(c4nsc5ccccc45)CC3)c(Cl)cc2N1", "note": "[Ziprasidone]", "Observed Human fa": 0.63}, {"molecule": "CC(C)CN(C[C@@H](O)[C@H](Cc1ccccc1)NC(=O)O[C@H]1CCOC1)S(=O)(=O)c1ccc(N)cc1", "note": "[Amprenavir]", "Observed Human fa": 0.76}, {"molecule": "COc1ccc(C(CN(C)C)C2(O)CCCCC2)cc1", "note": "(stereo not shown) [Venlafaxine]", "Observed Human fa": 0.96}, {"molecule": "CCCc1nc2c(C)cc(-c3nc4ccccc4n3C)cc2n1Cc1ccc(-c2ccccc2C(=O)O)cc1", "note": "[Telmisartan]", "Observed Human fa": 0.82}, {"molecule": "O=C(O)c1cc(/N=N/c2ccc(S(=O)(=O)Nc3ccccn3)cc2)ccc1O", "note": "[Sulfasalazine]", "Observed Human fa": 0.33}, {"molecule": "CN(C)CCc1c[nH]c2ccc(C[C@H]3COC(=O)N3)cc12", "note": "[Zolmitriptan]", "Observed Human fa": 0.92}, {"molecule": "CCOC(=O)N1CCC(=C2c3ccc(Cl)cc3CCc3cccnc32)CC1", "note": "[Loratadine]", "Observed Human fa": 0.90}, {"molecule": "CN(Cc1cnc2nc(N)nc(N)c2n1)c1ccc(C(=O)N[C@@H](CCC(=O)O)C(=O)O)cc1", "note": "[Methotrexate]", "Observed Human fa": 0.64}, {"molecule": "CN(C)CCC=C1c2ccccc2COc2ccccc21", "note": "[Doxepin]", "Observed Human fa": 0.76}, {"molecule": "CC[C@H]1OC(=O)[C@H](C)[C@@H](O[C@H]2C[C@@](C)(OC)[C@@H](O)[C@H](C)O2)[C@H](C)[C@@H](O[C@@H]2O[C@H](C)C[C@H](N(C)C)[C@H]2O)[C@](C)(O)C[C@@H](C)CN(C)[C@H](C)[C@@H](O)[C@]1(C)O", "note": "[Azithromycin]", "Observed Human fa": 0.43}, {"molecule": "CNS(=O)(=O)Cc1ccc2[nH]cc(CCN(C)C)c2c1", "note": "[Sumatriptan]", "Observed Human fa": 0.58}, {"molecule": "CNS(=O)(=O)CCc1ccc2[nH]cc(C3CCN(C)CC3)c2c1", "note": "[Naratriptan]", "Observed Human fa": 0.70}, {"molecule": "O=C1NC(=O)C(c2ccccc2)(c2ccccc2)N1", "note": "[Phenytoin]", "Observed Human fa": 0.93}, {"molecule": "Nc1cccc2c1CN(C1CCC(=O)NC1=O)C2=O", "note": "(stereo not shown) [Lenalidomide]", "Observed Human fa": 0.90}, {"molecule": "C#CCN(C)[C@H](C)Cc1ccccc1", "note": "[Selegiline]", "Observed Human fa": 1.0}, {"molecule": "CCN(CC)CCNC(=O)c1cc(Cl)c(N)cc1OC", "note": "[Metoclopramide]", "Observed Human fa": 0.89}, {"molecule": "CO[C@H]1/C=C/O[C@@]2(C)Oc3c(C)c(O)c4c(c3C2=O)C2=NC3(CCN(CC(C)C)CC3)NC2=C(NC(=O)/C(C)=C\\C=C\\[C@H](C)[C@H](O)[C@@H](C)[C@@H](O)[C@@H](C)[C@H](OC(C)=O)[C@@H]1C)C4=O", "note": "[Rifabutin]", "Observed Human fa": 0.53}]}]}
